The target of the first assay is T1, human OX2R (Homo sapiens, UniProt O43614).
T1 sequence (O43614 1-444): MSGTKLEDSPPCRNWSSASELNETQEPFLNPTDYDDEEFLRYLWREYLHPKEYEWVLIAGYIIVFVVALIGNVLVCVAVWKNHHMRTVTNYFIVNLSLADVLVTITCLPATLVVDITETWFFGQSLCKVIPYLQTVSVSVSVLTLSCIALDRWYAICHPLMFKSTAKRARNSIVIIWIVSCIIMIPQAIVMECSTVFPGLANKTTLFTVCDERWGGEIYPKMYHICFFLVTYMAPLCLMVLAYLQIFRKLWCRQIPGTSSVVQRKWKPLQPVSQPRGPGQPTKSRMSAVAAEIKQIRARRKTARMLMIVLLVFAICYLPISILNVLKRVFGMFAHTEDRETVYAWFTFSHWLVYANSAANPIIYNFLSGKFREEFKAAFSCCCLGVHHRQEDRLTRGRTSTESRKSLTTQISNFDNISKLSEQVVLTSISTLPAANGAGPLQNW
As to the kind of experiment: IPOne (IP-1) orexin receptor agonist assay in CHO cells expressing human OX2R. Conditions: CHO, hOX2R IP-One; percentage of mean max effect of a reference compound at 1 uM with 100% activity.
Method: In atypical experiment, the OX1 and OX2 receptor agonist activity is determined in accordance with the following general experimental method. Chinese hamster ovary (CHO) cells expressing human OX1R and/or the human OX2R were grown in Iscove's modified DMEM containing glutaMAX™, 1% G418, 100 U/mL penicillin, 100 μg/mL streptomycin and 10% heat-inactivated qualified fetal bovine serum (FBS). […] During this incubation, IP-one detection reagents were prepared (38:1:1 lysis buffer:D2:AB-cryptate reagents).
For each compound, data were fit to a four parameter logistic fit (ActivityBase software) and the EC50 was reported as the inflection point of the resulting curve.
What is called Emax is the size of the effect at its maximum, as opposed to the concentration needed. `CS(=O)(=O)N[C@H]1C[C@@H](CC(N)=O)N2C(=O)OCCCOc3cc(C(F)F)cc(n3)C3CCC(CC3)OCC12` (stereo partly drawn) [Example 102, 2-((2^1S,2^4S,5^2R,5^3S,5^5S)-1^4-(difluoromethyl)-5^3-(methylsulfonamido)-6-oxo-3,7,11-trioxa-1(2,6)-pyridina-5(2,1)-pyrrolidina-2(1,4)-cyclohexanacycloundecaphane-5^5-yl)acetamide] had an Emax of 99.8%.
In the case of `COc1cc2nc(c1)C1CCC(CC1)OCC1[C@@H](NS(=O)(=O)CF)C[C@@H](C)N1C(=O)OCCO2` (stereo partly drawn) [Example 104, 1-fluoro-N-((2^1R,2^4R,5^2R,5^3S,5^5R)-1^4-methoxy-5^5-methyl-6-oxo-3,7,10-trioxa-1(2, 6)-pyridina-5(2,1)-pyrro-lidina-2(1,4)-cyclohexana-cyclodecaphane-5^3-yl)methanesulfonamide], the Emax is 102%.
`COc1cc2nc(c1)C1CCC(CC1)OCC1[C@@H](NS(=O)(=O)C(F)F)C[C@@H](C)N1C(=O)OCCO2` (stereo partly drawn) [Example 105, 1,1-difluoro-N-((2^1R,2^4R,5^2R,5^3S,5^5R)-14-methoxy-5^5-methyl-6-oxo-3,7,10-trioxa-1(2,6)-pyridina-5(2,1)-pyrrolidina-2(1,4)-cyclohex-anacyclodecaphane-5^3-yl)methanesulfonamide]: the Emax came to 99.7%.
On the same count and under the same terms, the result for `CCS(=O)(=O)N[C@H]1C[C@@H](C)N2C(=O)OCCCOc3cc(OC)cc(n3)C3CCC(CC3)OCC12` (stereo partly drawn) [Example 106, N-((2^1R,2^4R,5^2R,5^3S,5^5R)-1^4-methoxy-5^5-methyl-6-oxo-3,7,11-trioxa-1(2,6)-pyridina-5(2,1)-pyrrolidina-2(1,4)-cyclohex-anacycloundecaphane-5^3-yl)ethanesulfonamide] reads 97.3%.
The same measure, in the same setting: the same measure for `COc1cc2nc(c1)C1CCC(CC1)OCC1[C@@H](NS(=O)(=O)CF)C[C@@H](C)N1C(=O)OCCCO2` (stereo partly drawn) [Example 107, 1-fluoro-N-((2^1R,2^4R,5^2R, 5^3S,5^5R)-1^4-methoxy-5^5-methyl-6-oxo-3,7,11-trioxa-1(2,6)-pyridina-5(2,1)-pyrrolidina-2(1,4)-cyclohexanacycloundecaphane-5^3-yl)methanesulfonamide]: 101%.
`COc1cc2nc(c1)C1CCC(CC1)OCC1[C@@H](NS(=O)(=O)C(F)F)C[C@@H](C)N1C(=O)OCCCO2` (stereo partly drawn) [Example 108, 1,1-difluoro-N-((2^1R,2^4R,5^2R,5^3S,5^5R)-14-methoxy-5^5-methyl-6-oxo-3,7,11-trioxa-1(2,6)-pyridina-5(2,1)-pyrrolidina-2(1,4)-cyclohexanacycloundecaphane-5^3-yl)methanesulfonamide]: the Emax came to 104%.
Regarding `C[C@@H]1C[C@H](NS(C)(=O)=O)[C@@H]2COC3CCC(CC3)c3ccc(F)c(n3)CCCCOC(=O)N12` [Example 110, N-((2^1S,2^4S,5^2R,5^3S,5^5R)-1^5-fluoro-5^5-methyl-6-oxo-3,7-dioxa-1(2,6)-pyridina-5(2,1)-pyrrolidina-2(1,4)-cyclohexanacycloundecaphane-5^3-yl)methanesulfonamide], the Emax amounted to 102%.

The assay is the same for the next values; noted with them: hOX2R IP-One; percentage of mean max effect of a reference compound at 1 uM with 100% activity.
Regarding `CCS(=O)(=O)NC1CC(C)N2C(=O)OCCOc3cc(OC)cc(n3)C3CCC(CC3)OCC12` (stereo not drawn) [Example 103, N-((2^1R,2^4R,5^2R,5^3S,5^5R)-1^4-methoxy-5^5-methyl-6-oxo-3,7,10-trioxa-1(2,6)-pyridina-5(2,1)-pyrrolidina-2(1,4)-cyclohexanacyclodecaphane-5^3-yl)ethanesulfonamide], the “Emax (%)” value is given as 103.0%.
Same read-out and setting: the result for `CC1CC(NS(C)(=O)=O)C2COC3CCC(CC3)c3cc(C(F)(F)F)cc(n3)CCCCOC(=O)N12` (stereo not drawn) [Example 109, N-((2^1S,2^4S,5^2R,5^3S,5^5R)-5^5-methyl-6-oxo-14-(trifluoromethyl)-3,7-dioxa-1(2,6)-pyridina-5(2,1)-pyrrolidina-2(1,4)-cyclohexanacycloundecaphane-5^3-yl)methanesulfonamide] reads 102.4%.

(Values after patent US20240002397A1, “3-AMINO PYRROLIDINE AND PIPERIDINE MACROCYCLIC OREXIN RECEPTOR AGONISTS” (Merck Sharp & Dohme LLC, priority 2020, published 2024).)
